Results as given in US12275731B2, “Azaindole inhibitors of wild-type and mutant forms of LRRK2” (DANA-FARBER CANCER INSTITUTE, INC., priority 2018, dated 2025).

How the values were obtained:
Assay in all cases: KinomeScan profiling
Format in all cases: binding
[1] = biological target: T1, PIK3CA(M1043I) (Homo sapiens, UniProt P42336, M1043I); settings: read-out: % control
T1 construct: purchased KinomeScan® (panel service)
In short: (§1)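 First, compounds in DMSO are added at 1 μM to each of 468 kinase assays. Next, RLU signals are normalised between positive control (0%) and DMSO (100%). Finally, kinases under 35% are flagged active.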

[2] = biological target: PKN1 (Homo sapiens, UniProt Q16512); settings: PKN1, 1 μM; read-out: % control
In short: as §1

[3] = biological target: CSF1R (Homo sapiens, UniProt P07333); settings: read-out: % control
In short: as §1

[4] = biological target: T2, TYRO3 (Homo sapiens, UniProt Q06418); settings: TYRO3, 1 μM; read-out: % control
T2 sequence (Q06418 41-890): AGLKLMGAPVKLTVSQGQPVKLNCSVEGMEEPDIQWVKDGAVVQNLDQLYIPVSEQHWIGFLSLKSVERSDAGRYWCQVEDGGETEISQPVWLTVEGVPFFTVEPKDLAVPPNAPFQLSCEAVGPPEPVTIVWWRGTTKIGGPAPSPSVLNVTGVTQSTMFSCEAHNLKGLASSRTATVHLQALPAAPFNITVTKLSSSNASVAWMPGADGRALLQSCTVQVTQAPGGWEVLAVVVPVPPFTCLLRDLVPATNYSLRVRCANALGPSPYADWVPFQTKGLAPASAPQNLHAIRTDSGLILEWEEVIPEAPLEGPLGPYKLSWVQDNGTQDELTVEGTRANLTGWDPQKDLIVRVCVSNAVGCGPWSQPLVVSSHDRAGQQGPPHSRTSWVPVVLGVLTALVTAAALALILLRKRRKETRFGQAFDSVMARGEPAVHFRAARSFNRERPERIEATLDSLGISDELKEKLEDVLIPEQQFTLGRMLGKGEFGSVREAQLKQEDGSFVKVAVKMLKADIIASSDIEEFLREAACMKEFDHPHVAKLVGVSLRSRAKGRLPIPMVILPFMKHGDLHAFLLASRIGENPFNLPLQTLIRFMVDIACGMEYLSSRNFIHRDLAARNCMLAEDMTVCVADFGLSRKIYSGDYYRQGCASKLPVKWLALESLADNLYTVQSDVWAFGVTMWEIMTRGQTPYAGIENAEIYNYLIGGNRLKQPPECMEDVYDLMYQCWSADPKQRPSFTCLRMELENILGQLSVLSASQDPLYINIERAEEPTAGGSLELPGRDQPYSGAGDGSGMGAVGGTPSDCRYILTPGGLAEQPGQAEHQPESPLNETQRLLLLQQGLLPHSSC
In short: as §1

[5] = biological target: T3, ABL1-phosphorylated (Homo sapiens, UniProt P00519); settings: read-out: % control
T3 construct: purchased KinomeScan®
In short: as §1

[6] = biological target: MAST1 (Homo sapiens, UniProt Q9Y2H9); settings: MAST1, 1 μM; read-out: % control
In short: as §1

[7] = biological target: T4, BRSK1 (Homo sapiens, UniProt Q8TDC3); settings: BRSK1, 1 μM; read-out: % control
T4 sequence (Q8TDC3 1-778): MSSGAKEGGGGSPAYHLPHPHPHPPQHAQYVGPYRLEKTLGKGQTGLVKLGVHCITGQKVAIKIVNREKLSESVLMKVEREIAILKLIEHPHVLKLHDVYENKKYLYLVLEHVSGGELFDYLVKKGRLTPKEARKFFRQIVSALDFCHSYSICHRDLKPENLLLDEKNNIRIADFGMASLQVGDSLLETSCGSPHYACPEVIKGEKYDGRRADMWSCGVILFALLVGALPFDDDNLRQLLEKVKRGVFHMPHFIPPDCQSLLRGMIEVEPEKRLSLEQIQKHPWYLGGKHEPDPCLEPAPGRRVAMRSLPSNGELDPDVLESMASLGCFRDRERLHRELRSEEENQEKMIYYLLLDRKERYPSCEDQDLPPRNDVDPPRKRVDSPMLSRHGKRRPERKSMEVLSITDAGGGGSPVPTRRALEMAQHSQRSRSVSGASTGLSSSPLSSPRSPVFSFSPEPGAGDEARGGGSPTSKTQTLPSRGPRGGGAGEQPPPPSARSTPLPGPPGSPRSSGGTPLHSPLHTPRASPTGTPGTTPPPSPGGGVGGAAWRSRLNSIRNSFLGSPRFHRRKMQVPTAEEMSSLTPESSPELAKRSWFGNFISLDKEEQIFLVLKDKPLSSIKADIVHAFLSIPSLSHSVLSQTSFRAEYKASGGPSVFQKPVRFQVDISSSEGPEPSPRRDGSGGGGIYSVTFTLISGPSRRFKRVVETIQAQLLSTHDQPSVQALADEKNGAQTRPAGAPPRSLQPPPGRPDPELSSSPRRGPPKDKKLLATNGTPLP
In short: as §1

[8] = biological target: T5, ARK5 (Homo sapiens, UniProt O60285); settings: ARK5, 1 μM; read-out: % control
T5 construct: purchased KinomeScan®
T5 sequence (O60285 1-661): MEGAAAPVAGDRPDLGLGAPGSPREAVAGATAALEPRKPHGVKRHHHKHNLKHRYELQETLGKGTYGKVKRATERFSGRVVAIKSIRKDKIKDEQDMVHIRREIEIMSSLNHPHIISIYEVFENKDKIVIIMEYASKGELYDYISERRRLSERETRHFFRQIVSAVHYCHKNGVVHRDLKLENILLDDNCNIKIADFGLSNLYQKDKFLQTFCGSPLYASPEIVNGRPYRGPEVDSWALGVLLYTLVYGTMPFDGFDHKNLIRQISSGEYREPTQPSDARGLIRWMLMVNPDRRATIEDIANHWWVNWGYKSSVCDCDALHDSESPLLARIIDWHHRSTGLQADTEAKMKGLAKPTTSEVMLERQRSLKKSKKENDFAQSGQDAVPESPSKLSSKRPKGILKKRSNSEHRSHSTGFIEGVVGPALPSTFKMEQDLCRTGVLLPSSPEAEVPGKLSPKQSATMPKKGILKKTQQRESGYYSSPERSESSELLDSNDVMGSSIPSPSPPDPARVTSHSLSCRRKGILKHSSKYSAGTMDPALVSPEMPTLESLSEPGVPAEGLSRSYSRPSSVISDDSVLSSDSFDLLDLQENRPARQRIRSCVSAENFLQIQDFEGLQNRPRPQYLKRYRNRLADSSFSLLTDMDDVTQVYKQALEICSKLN
In short: as §1

Chain of PKN1 (Q16512 whole entry): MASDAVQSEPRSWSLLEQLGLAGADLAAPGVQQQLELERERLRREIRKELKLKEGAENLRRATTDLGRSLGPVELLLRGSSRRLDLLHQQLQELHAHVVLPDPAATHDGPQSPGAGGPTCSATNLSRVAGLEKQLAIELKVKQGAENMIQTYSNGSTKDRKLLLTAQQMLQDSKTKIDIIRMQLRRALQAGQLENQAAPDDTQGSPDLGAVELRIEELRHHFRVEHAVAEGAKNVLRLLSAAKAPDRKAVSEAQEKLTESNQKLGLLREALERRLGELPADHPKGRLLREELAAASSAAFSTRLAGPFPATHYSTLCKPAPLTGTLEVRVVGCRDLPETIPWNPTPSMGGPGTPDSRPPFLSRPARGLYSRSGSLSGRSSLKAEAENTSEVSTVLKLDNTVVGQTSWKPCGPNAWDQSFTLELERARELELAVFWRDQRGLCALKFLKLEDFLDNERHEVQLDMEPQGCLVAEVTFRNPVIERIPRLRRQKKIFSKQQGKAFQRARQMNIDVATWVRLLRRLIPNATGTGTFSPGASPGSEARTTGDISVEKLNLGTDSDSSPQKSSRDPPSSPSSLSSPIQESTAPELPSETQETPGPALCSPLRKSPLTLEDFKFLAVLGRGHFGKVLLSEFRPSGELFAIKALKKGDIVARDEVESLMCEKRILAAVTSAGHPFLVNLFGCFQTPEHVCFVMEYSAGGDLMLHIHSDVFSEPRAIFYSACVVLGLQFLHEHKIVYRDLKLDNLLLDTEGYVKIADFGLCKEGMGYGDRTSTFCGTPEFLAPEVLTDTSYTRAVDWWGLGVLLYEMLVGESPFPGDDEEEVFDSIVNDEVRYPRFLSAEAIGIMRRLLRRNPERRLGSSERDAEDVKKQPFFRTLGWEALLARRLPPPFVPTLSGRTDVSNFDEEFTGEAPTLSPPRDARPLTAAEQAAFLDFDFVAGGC
T1 sequence (P42336 whole entry M1043I): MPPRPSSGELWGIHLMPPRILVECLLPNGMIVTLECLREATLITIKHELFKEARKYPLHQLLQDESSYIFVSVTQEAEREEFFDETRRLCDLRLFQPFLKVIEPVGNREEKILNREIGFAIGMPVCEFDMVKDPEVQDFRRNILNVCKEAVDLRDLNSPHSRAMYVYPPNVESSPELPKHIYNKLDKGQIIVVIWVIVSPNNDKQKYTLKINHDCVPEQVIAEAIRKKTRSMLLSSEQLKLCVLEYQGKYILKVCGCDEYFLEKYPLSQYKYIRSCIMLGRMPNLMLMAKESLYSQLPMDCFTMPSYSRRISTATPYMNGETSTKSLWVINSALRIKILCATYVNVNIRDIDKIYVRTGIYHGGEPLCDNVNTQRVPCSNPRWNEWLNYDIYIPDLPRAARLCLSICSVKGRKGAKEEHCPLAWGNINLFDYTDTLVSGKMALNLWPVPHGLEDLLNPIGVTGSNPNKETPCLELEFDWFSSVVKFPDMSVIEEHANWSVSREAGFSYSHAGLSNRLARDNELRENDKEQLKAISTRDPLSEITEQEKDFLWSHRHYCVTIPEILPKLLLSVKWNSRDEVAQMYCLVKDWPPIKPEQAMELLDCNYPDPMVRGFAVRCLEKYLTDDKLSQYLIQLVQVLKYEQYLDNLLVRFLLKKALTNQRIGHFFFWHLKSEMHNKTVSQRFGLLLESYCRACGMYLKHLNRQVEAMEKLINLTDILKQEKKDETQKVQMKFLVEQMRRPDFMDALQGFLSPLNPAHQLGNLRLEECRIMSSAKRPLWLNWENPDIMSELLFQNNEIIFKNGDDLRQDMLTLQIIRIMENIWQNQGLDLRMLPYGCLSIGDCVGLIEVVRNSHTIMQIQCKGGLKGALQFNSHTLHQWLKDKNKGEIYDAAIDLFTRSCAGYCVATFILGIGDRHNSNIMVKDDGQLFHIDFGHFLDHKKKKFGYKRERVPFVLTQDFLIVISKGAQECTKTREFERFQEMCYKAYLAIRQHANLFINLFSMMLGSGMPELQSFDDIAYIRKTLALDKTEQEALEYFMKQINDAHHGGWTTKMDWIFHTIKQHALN
Chain of CSF1R (P07333 20-972): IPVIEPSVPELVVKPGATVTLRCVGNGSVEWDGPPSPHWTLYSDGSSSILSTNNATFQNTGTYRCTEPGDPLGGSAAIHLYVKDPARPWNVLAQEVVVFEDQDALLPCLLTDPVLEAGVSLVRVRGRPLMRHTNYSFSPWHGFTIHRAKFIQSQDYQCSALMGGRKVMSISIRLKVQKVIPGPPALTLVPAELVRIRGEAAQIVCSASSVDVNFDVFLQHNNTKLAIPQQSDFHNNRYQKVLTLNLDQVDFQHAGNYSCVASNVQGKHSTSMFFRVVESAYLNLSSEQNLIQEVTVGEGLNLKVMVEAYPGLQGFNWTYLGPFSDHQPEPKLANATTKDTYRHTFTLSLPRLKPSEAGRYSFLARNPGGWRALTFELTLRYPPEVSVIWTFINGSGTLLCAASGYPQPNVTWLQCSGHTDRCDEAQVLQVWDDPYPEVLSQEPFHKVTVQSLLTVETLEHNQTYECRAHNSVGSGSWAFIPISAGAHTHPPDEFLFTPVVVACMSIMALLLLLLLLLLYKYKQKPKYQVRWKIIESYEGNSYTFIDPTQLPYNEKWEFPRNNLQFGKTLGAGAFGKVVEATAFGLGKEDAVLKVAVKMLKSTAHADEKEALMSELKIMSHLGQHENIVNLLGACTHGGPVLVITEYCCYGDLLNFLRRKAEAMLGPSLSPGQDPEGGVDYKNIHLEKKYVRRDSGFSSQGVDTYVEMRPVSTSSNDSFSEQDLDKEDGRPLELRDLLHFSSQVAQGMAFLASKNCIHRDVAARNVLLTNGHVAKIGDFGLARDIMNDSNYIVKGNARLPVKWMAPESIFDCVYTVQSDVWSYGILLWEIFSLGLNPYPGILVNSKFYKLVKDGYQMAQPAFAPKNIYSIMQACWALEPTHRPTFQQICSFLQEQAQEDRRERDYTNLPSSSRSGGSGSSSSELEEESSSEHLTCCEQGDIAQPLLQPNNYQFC
Chain of MAST1 (Q9Y2H9 whole entry): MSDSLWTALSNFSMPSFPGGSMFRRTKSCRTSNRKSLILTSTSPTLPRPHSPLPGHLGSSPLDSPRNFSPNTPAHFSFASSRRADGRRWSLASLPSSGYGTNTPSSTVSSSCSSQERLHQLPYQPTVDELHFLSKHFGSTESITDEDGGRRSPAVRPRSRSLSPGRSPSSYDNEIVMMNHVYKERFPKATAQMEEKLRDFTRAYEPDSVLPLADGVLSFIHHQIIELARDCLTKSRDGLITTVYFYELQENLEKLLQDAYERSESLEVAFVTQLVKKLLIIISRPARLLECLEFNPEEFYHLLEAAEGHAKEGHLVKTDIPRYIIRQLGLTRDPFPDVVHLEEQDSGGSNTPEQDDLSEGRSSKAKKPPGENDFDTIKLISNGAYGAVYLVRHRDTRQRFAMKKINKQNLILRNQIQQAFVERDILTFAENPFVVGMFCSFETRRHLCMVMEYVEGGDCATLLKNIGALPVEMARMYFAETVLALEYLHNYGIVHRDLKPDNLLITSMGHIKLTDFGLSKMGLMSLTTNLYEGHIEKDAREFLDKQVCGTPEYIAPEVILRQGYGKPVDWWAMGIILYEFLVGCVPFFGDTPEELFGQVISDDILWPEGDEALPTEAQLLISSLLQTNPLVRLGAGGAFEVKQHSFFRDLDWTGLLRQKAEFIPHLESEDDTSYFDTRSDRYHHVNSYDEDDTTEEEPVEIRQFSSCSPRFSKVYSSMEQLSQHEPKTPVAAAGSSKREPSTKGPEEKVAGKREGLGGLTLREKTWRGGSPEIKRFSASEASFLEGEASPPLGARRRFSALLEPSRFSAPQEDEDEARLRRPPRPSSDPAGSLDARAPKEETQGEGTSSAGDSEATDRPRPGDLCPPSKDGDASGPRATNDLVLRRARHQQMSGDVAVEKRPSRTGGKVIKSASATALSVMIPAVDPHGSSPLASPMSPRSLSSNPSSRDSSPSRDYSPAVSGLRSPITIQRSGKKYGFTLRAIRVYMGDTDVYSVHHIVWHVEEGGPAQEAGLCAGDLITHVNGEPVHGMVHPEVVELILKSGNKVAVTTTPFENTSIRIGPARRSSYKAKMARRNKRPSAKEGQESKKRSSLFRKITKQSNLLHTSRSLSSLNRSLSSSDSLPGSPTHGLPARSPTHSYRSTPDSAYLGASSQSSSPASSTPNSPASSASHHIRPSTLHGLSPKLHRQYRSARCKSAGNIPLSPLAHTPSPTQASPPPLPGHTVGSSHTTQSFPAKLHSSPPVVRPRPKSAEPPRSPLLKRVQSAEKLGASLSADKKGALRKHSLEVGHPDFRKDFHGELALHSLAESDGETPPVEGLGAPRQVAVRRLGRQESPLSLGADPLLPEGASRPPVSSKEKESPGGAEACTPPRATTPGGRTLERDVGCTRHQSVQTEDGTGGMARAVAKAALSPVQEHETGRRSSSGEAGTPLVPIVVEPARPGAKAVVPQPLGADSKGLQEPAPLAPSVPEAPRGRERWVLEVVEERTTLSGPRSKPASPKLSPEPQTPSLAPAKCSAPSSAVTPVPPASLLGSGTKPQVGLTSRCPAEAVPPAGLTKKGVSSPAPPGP

SMILES | remaining binding at 1 µM [1] [%] | remaining binding at 1 µM [2] [%] | remaining binding at 1 µM [3] [%] | remaining binding at 1 µM [4] [%] | remaining binding at 1 µM [5] [%] | remaining binding at 1 µM [6] [%] | remaining binding at 1 µM [7] [%] | remaining binding at 1 µM [8] [%]
CNc1c(-c2cnn([C@H]3CCN(C(C)=O)C[C@@H]3F)c2)cnc2[nH]cc(Cl)c12 [Compound 77, 1-((3S,4S)-4-(4-(3-chloro-4-(methylamino)-1H-pyrrolo[2,3-b]pyridin-5-yl)-1H-pyrazol-1-yl)-3-fluoropiperidin-1-yl)ethan-1-one] | 66 | 100 | 74 | 100 | 62 | 50 | 100 | 86
CNc1c(-c2ccc(C(=O)N3CCC(N4CCOCC4)CC3)cc2)cnc2[nH]cc(Cl)c12 [Compound 96, (4-(3-chloro-4-(methylamino)-1H-pyrrolo[2,3-b]pyridin-5-yl)phenyl)(4-morpholinopiperidin-1-yl)methanone] | 81 | 95 | 73 | 100 | 88 | 24 | 100 | 64
O=C(c1ccc(-c2cnc3[nH]cc(Cl)c3c2NC2CCCC2)cc1)N1CCC(N2CCOCC2)CC1 [Compound 101, (4-(3-chloro-4-(cyclopentylamino)-1H-pyrrolo[2,3-b]pyridin-5-yl)phenyl)(4-morpholinopiperidin-1-yl)methanone] | 100 | 100 | 28 | 56 | 97 | 70 | 100 | 67
